In test [1] the target is Protein kinase C alpha type (Homo sapiens, UniProt P17252). Briefly: Inhibition of serine/threonine kinase(PKC-alpha). The arrangement: species or system Sus scrofa.
Test [2] concerns the target Protein kinase C delta type (Homo sapiens, UniProt Q05655). Briefly: Inhibition of serine/threonine kinase(PKC-delta). The arrangement: species or system Sus scrofa.
In test [3] the target is Platelet-derived growth factor receptor (Homo sapiens, UniProt P09619+P16234). Briefly: Inhibition of tyrosine kinase(PDGF-R). In kind it is protein-complex assay.
The target of test [4] is Epidermal growth factor receptor (Homo sapiens, UniProt P00533). Briefly: Inhibition of tyrosine kinase Epidermal growth factor receptor.
Chain of Epidermal growth factor receptor (P00533 whole entry): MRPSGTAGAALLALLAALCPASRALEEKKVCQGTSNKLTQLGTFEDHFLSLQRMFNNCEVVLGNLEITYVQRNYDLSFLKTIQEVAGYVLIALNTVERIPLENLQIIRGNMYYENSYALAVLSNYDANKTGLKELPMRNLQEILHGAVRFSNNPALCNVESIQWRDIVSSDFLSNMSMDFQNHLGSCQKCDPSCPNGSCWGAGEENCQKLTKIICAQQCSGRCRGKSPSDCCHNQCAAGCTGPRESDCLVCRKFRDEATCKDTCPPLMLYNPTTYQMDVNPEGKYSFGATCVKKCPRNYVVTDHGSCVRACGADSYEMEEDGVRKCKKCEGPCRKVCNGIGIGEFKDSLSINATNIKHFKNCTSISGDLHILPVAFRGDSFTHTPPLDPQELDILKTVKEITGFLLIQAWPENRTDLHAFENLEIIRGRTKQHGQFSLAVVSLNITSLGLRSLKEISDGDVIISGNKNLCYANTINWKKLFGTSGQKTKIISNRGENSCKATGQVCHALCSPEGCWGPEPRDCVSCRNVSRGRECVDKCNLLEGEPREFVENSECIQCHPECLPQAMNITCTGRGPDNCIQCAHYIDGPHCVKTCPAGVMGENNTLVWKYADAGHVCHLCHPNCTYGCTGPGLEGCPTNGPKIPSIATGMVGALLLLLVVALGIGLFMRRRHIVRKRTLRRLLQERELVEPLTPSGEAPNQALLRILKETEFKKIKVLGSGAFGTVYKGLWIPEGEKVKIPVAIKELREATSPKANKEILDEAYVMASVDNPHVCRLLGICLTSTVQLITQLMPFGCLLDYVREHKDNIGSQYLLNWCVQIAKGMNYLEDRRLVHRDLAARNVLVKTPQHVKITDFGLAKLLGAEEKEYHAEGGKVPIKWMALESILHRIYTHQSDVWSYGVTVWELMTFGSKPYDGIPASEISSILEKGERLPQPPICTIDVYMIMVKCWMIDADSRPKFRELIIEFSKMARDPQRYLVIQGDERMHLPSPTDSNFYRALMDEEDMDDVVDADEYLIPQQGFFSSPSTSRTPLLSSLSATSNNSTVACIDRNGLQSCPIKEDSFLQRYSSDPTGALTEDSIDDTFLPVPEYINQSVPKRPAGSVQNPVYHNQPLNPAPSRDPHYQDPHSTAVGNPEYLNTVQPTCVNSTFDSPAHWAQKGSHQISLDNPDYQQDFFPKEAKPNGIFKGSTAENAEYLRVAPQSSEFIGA
The target in test [5] is cAMP-dependent protein kinase (PKA) (Homo sapiens, UniProt P22694+P17612+P22612). Briefly: Inhibition of serine/threonine kinase(PKA). The format is protein assay, Oryctolagus cuniculus.
In test [6] the target is Proto-oncogene tyrosine-protein kinase Src (Homo sapiens, UniProt P12931). Briefly: Inhibition of tyrosine kinase(c-Src).
Chain of Proto-oncogene tyrosine-protein kinase Src (P12931 2-536 limits assumed): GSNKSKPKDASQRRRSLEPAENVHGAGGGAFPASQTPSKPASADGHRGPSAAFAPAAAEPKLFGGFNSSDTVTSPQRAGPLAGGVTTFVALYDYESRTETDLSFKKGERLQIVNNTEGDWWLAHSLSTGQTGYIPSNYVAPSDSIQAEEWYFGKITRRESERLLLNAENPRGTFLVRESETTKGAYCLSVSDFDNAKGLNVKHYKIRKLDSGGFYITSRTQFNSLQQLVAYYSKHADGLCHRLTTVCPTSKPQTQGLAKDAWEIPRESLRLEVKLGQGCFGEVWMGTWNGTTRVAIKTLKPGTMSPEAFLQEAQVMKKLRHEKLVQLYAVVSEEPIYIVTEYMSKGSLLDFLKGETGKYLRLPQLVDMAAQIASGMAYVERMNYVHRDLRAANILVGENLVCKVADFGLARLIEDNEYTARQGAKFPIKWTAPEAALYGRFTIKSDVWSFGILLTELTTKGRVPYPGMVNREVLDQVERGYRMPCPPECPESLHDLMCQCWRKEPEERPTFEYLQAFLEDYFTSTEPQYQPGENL

pIC50: −log10 of the molar value.

Chain of Protein kinase C delta type (Q05655 whole entry): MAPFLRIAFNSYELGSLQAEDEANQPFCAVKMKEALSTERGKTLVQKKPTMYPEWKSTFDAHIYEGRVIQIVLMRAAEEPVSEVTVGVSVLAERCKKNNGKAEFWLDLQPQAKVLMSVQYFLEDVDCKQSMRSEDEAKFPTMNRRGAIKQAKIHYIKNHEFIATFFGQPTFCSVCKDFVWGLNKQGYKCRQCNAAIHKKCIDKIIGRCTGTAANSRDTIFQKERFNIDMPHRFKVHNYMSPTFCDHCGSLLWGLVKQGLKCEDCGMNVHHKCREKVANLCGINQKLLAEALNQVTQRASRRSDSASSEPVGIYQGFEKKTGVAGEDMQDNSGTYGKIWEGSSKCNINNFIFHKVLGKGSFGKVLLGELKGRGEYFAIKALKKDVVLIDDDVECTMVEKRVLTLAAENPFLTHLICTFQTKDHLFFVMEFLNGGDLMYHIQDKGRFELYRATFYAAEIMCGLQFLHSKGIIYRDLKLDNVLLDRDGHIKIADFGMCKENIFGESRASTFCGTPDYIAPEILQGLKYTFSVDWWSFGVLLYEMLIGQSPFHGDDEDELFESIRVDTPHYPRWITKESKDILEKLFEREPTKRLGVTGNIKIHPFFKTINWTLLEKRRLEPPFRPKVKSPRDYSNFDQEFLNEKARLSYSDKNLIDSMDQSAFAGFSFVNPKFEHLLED

Take `Cc1ccc(NC(=O)c2ccccc2)cc1Nc1nccc(-c2ccc[n+]([O-])c2)n1`: the pIC50 – broadly, the negative decadic logarithm of the IC50, by convention in mol/L – was < 4.00 in test [1], < 4.00 in test [2], < 5.00 in test [3] and < 4.00 in test [4]. The IC50 – broadly, the point on the concentration scale where inhibition reaches its midpoint – in test [5] was > 500 µM.
With `COc1ccc(NC(=O)c2ccccc2)cc1Nc1nccc(-c2cccnc2)n1`, the pIC50 in test [1] was 5.00; in test [2] it was < 4.00; in test [3], < 5.00; in test [4], < 4.00. The concentration for half-maximal inhibition (IC50) in test [5] was > 500 µM.
On to `COc1ccccc1C(=O)Nc1ccc(C)c(Nc2nccc(-c3cccnc3)n2)c1`, for which the negative logarithm of the IC50 (pIC50) in test [1] is < 4.00; in test [2] it was < 3.30; in test [3] it was 6.52; in test [4] it was < 4.00; in test [6], < 4.00. For the same compound, the half-maximal inhibitory concentration (IC50) in test [5] was > 500 µM.
In the case of `Cc1ccc(C(=O)Nc2ccc(C)c(Nc3nccc(-c4cccnc4)n3)c2)cc1`, the pIC50 in test [1] is < 4.00; in test [2], < 3.30; in test [3], 8.00; in test [4], < 4.00; in test [6] it was < 4.00. The IC50 in test [5] was > 100 µM.
For `Cc1ccc(NC(=O)c2ccc3ccccc3c2)cc1Nc1nccc(-c2cccnc2)n1`, the pIC50 is < 4.00 in test [1]; < 3.30 in test [2]; 7.30 in test [3]; < 4.00 in test [4]; < 4.00 in test [6]. The IC50 in test [5] is > 100 µM.
On to `Cc1ccc([N+](=O)[O-])cc1Nc1nccc(-c2cccnc2)n1`, for which the pIC50 was < 3.30 in test [1]; < 3.30 in test [2]; < 4.00 in test [3]; < 4.00 in test [4]; < 4.00 in test [6]. Moreover, the IC50 in test [5] is > 500 µM.
`Cc1ccc(NC(=O)c2ccc(Cl)cc2)cc1Nc1nccc(-c2cccnc2)n1`: the pIC50 in test [1] was < 4.00; in test [2], < 3.30; in test [3], 8.00; in test [4], < 4.00; in test [6], < 4.00. In addition, the concentration for half-maximal inhibition (IC50) in test [5] was > 100 µM.
For `Cc1ccc(N)cc1Nc1nccc(-c2cccnc2)n1`, the pIC50 in test [1] was < 4.00; in test [2] it was < 3.30; in test [3], < 5.00; in test [4] it was < 4.00; in test [6] it was < 4.00. Besides, the IC50 in test [5] was > 500 µM.
For `O=C(Nc1ccc(Cl)c(Nc2nccc(-c3cccnc3)n2)c1)c1ccccc1`, the pIC50 in test [1] is < 4.00; in test [2], < 4.00; in test [3], 6.82; in test [4], < 4.00. In test [5], the IC50 was > 500 µM.
On to `Cc1ccc(N(C)C(=O)c2ccccc2)cc1Nc1nccc(-c2cccnc2)n1`, for which the pIC50 in test [1] is 4.07; in test [2], < 4.00; in test [3], < 4.00; in test [4] it was 4.31. Moreover, the IC50 in test [5] was > 500 µM.
Regarding `Cc1ccc(N(C(=O)c2ccccc2)C(=O)c2ccccc2)cc1Nc1nccc(-c2cccnc2)n1`, the pIC50 in test [1] was < 4.00; in test [2], < 4.00; in test [3] it was 5.60; in test [4], 4.12. In addition, in test [5], the half-maximal inhibitory concentration (IC50) was > 500 µM.
For `O=C(Nc1cccc(Nc2nccc(-c3cccnc3)n2)c1)c1ccccc1`, the pIC50 in test [1] is 5.92; in test [2] it was 4.64; in test [3], 5.30; in test [4], < 4.30; in test [6], 4.80. Also, the IC50 in test [5] was > 500 µM.
Take `Cc1ccc(NC(=O)c2ccccc2)cc1Nc1nccc(-c2cccnc2)n1`: the negative-log IC50 (pIC50) in test [1] is 4.14; in test [2], < 3.30. For the same compound, the IC50 in test [5] is > 500 µM.
Take `Cc1ccc(NC(=O)c2ccccc2)cc1Nc1nccc(-c2cccs2)n1`: the pIC50 in test [1] was < 4.00; in test [2], < 4.00; in test [3], < 5.00; in test [4], < 4.00; in test [6], < 4.00. For the same compound, the IC50 in test [5] was > 500 µM.
As for `CNc1ccc(C)c(Nc2nccc(-c3cccnc3)n2)c1`, the negative-log IC50 (pIC50) in test [1] was 4.15; in test [2], < 4.00; in test [3] it was < 5.00; in test [4] it was < 4.00. Also, the IC50 in test [5] is > 500 µM.
For the compound `CC(=O)Nc1ccc(C)c(Nc2nccc(-c3cccnc3)n2)c1`, the pIC50 in test [1] is < 4.00; in test [2] it was < 3.30; in test [3] it was 4.30; in test [4], < 4.00; in test [6], < 4.00. Also, the IC50 in test [5] is > 500 µM.

Source of the values: ChEMBL document CHEMBL1159186 (Bioorg Med Chem Lett, 1996).
